Laboratory results from paper PMC5734042, “Deciphering the Origin, Evolution, and Physiological Function of the Subtelomeric Aryl-Alcohol Dehydrogenase Gene Family in the Yeast Saccharomyces cerevisiae” (Applied and Environmental Microbiology, 2017).

Columns and labels:
Details in all cases: NADPH co-substrate
[1] = molecular target: T1, PcAad1p (Phanerodontia chrysosporium, UniProt Q01752); assay: spectrophotometric NADPH consumption at […] nm; type: biochemical
T1 construct: full length, plasmid pGS-21a-PcAad1, N-terminal His6-GST and C-terminal His6 tags kept, E. coli BL21 Star; coding primer starts ATGAACATCTGGGCACCCG (MNIWAP)
T1 sequence (Q01752 1-385): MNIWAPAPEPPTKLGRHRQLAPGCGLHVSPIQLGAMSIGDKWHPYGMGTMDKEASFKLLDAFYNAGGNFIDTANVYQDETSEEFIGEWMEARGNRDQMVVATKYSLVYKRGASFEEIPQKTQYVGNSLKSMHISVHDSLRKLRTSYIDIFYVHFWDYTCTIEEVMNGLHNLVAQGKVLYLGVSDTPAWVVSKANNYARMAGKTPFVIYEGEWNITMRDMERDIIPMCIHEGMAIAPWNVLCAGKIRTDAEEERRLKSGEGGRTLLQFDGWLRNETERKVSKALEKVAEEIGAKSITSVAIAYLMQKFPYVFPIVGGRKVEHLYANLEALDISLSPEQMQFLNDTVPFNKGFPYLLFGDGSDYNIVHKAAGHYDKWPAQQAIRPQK

[2] = molecular target: T2, ScAad10^-35Cp (Saccharomyces cerevisiae, UniProt P47182); assay: spectrophotometric NADPH consumption at […] nm; type: biochemical
T2 construct: gene AAD10; resurrected pseudogene: in-frame upstream 264 bp (88 residues) restored to annotated Aad10, stop TAG to CAG (Gln) at nt -35; annotated natural ORF (YJR155W) lacks these residues; N-terminal His6-GST and C-terminal His6 tags, E. coli BL21 Star
T2 sequence (P47182 1-288): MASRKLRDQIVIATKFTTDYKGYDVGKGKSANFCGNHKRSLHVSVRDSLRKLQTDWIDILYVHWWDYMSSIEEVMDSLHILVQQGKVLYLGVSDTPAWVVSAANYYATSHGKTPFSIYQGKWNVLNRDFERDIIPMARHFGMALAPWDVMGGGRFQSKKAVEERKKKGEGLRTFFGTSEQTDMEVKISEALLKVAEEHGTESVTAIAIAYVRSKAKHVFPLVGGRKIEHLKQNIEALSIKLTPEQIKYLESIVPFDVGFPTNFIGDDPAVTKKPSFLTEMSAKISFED

[3] = substrate: O=Cc1ccc(CO)o1; assay: purified protein; type: biochemical, Phanerodontia chrysosporium

## COc1ccc(C=O)cc1 [4-methoxybenzaldehyde]
[1]
  Km: 87.3 ± 116 µM

## O=Cc1ccc(CO)o1 [hydroxymethylfurfural]
[2]
  Km: 608 ± 246 µM

## O=CCc1ccccc1 [phenylacetaldehyde]
[1]
  Km: 527 ± 72.5 µM

B1: PcAad1p (Phanerodontia chrysosporium) (protein)
chain: MNIWAPAPEPPTKLGRHRQLAPGCGLHVSPIQLGAMSIGDKWHPYGMGTMDKEASFKLLDAFYNAGGNFIDTANVYQDETSEEFIGEWMEARGNRDQMVVATKYSLVYKRGASFEEIPQKTQYVGNSLKSMHISVHDSLRKLRTSYIDIFYVHFWDYTCTIEEVMNGLHNLVAQGKVLYLGVSDTPAWVVSKANNYARMAGKTPFVIYEGEWNITMRDMERDIIPMCIHEGMAIAPWNVLCAGKIRTDAEEERRLKSGEGGRTLLQFDGWLRNETERKVSKALEKVAEEIGAKSITSVAIAYLMQKFPYVFPIVGGRKVEHLYANLEALDISLSPEQMQFLNDTVPFNKGFPYLLFGDGSDYNIVHKAAGHYDKWPAQQAIRPQK
notes: full length, plasmid pGS-21a-PcAad1, N-terminal His6-GST and C-terminal His6 tags kept, E. coli BL21 Star; coding primer starts … (MNIWAP)
[3]
  Km: 171 ± 36.7 µM
  Vmax: 2.40 ± 0.27 in micromoles per minute per mg
